# Read-outs that look alike come from different tables or passages of the source.
# What was measured:
# patterned hPSC-CMs = test: Fluorometric cellular ROS / NO / superoxide detection assay in patterned hPSC-CMs; type: cell-based, human; conditions: patterned cells
# Method: PGC1-α is known to perform a central controlling role in global oxidative metabolism through induction of mitochondrial biogenesis and tuning of the intrinsic metabolic properties of mitochondria_ENREF_35. […] Based on this understanding, a fluorometric cellular ROS detection assay was performed on unpatterned and patterned hPSC-CMs to determine whether upregulation of the PGC1-α protein in patterned cells had any notable impact on oxidative stress. FIGS. 8A-8F show the effect of nanotopography on expression of oxidative stress markers in cultured hPSC-CMs. […] Samples analyzed were patterned cells treated with an NO scavenger (NO−), patterned cells treated with an NO inducer (NO+), untreated unpatterned cells, and untreated patterned cells. […] No difference was observed between flat and patterned samples. […] Samples analyzed were patterned cells treated with an ROS inhibitor (ROS−), patterned cells treated with an ROS inducer (ROS+), untreated unpatterned cells, and untreated patterned cells. […] […] A significant difference was also observed between flat and patterned samples. In all presented data, *p<0.05.
# hPSC-CM monolayers [1] = test: MEA conduction velocity (TCV, LCV) across hPSC-CM monolayers on flat and nanotopographically-patterned MEAs; type: cell-based, human; conditions: for IC50: Homo sapiens, longitudinal conduction velocity, read-out: IC50 from LCV data
# From the text: Additionally, interrogation of monolayer culture by MEA facilitates assessment of conduction velocity in a manner that is difficult when using single cell analysis methods, such as patch clamp electrophysiology. For all propagation experiments discussed herein, longitudinal conduction dictates the vertical orientation on the MEA as all nanopatterns were oriented to run vertically during pattern generation. FIG. 6I depicts measurement of conduction velocity (CV) across hPSC-CM monolayers on flat and nanotopographically-patterned MEAs. Conduction was measured specifically in both the transverse (TCV) and longitudinal (LCV) orientations and underlying nanotopography was organized to run longitudinally. In all presented data, *p<0.03, **p<0.003, ***p<0.001. […] Furthermore, longitudinal conduction velocities measured from patterned cells were substantially faster than similar measurements taken from flat controls, as well as global (non-directional) conduction velocity measurements. Specifically, longitudinal conduction velocity measured from patterned cells was recorded as 32.73 cm/s±9.51, whereas flat controls produced longitudinal and global conduction speeds of 10.32 cm/s±2.62 and […], respectively.
# In cardiac tissue, it is known to exert a strong conduction blocking effect, inhibiting action potential propagation and in turn affecting synchronous contraction of the tissue.
# Dose response curves were calculated from analysis of propagation speeds in both the transverse (TCV) and longitudinal (LCV) directions. The R^2 values for TCV and LCV curve fits were 0.23 and 0.11, respectively. […] The R^2 values for TCV and LCV curve fits were 0.21 and 0.28, respectively.
# Furthermore, the inconsistency of the propagation waves on these surfaces led to substantial variability in measured values across experimental repeats, making it difficult to construct well-fitted dose response curves. […] Residual values indicate the vertical distance (in Y units; in this case % change in conduction velocity) of the measured points from the fit line.
# 3D cardiac tissues = test: Field potential duration of 3D cardiac tissues on nanoMEA; type: cell-based; conditions: increasing doses, 3D patterned versus 2D unpatterned and 2D patterned, 21 days culture
# Method: FIG. 15 depicts engineered cardiac tissue responses to treatment with increasing doses of the hERG channel blocker cisapride on 2D unpatterned, 2D patterned and 3D patterned cell cultures. […] In this experiment, cells are first plated onto a nanoMEA substrate in a 4 μL droplet of medium. 17,500 cells are resuspended in this droplet and allowed to adhere to the substrate for 1 hour. At this point, a further 17,500 cells in 2 μL of medium are plated on top of the existing droplet and allowed to adhere to the first layer of cells. This process is repeated 2 more times to form 4 layers of cells on top of the patterned substrate. Cells on the first layer align in parallel with the underlying substrate and subsequent layers align in parallel with the layer below. Cardiomyocytes are mixed with cardiac fibroblasts at a ratio of 10 cardiomyocytes to 1 fibroblast. An hour after the last plating, the MEA wells are flooded with additional medium to maintain the cells and the constructs are then cultured out to 21 days before being used for drug screening assessment.
# hPSC-CM monolayers [2] = test: MEA field potential recording (FPDc, arrhythmia) of hPSC-CM monolayers on flat MEAs and nanoMEAs
# From the text: Median difference in beat interval (ΔBI), mean ΔBI, and the standard deviation of the ΔBI were compared in order to provide quantification of baseline arrhythmic properties in line with previously published methods.
# The ability to pattern individual wells within a multiwell MEA plate enabled assessment of multiple doses across both surface conditions within a single device, thereby increasing throughput for such comparative studies. Verapamil was first examined as a negative control compound.
# FIG. 12A depicts representative traces (averaged across 10 beats) recorded from hPSC-CM monolayers on flat MEAs and subjected to increasing doses of verapamil. FIG. 12B depicts representative traces recorded from hPSC-CM monolayers on nanoMEAs and subjected to increasing doses of verapamil. FIG. 12C depicts normalized dose response curve illustrating the effect for increasing concentrations of verapamil on the field potential durations corrected for beat rate (FPDc) of unpatterned and patterned hPSC-CMs.
# […] depicts representative traces recorded from hPSC-CM monolayers on flat MEAs and subjected to increasing doses of cisapride. […] depicts representative traces recorded from hPSC-CM monolayers on nanoMEAs and subjected to increasing doses of cisapride. FIG. 12F depicts normalized dose response curve illustrating the effect of increasing concentrations of cisapride on the FPDc of unpatterned and patterned hPSC-CMs.
# The mechanism by which bepridil prolongs QT is yet to be fully elucidated. However, in addition to regulating Ca^2+ release, it is known that bepridil competes with cTnI for troponin C binding sites, thereby altering Ca^2+ sensitivity in exposed cells. […] FIG. 12G depicts representative traces recorded from hPSC-CM monolayers on flat MEAs and subjected to increasing doses of bepridil. FIG. 12H depicts representative traces recorded from hPSC-CM monolayers on nanoMEAs and subjected to increasing doses of bepridil. FIG. 12I depicts normalized dose response curve illustrating effect of increasing concentrations of bepridil on the FPDc of unpatterned and patterned hPSC-CMs.
# [3] = system: HCM hPSC-CMs (MYH7 R663H variant); test: Depolarizing spike slope of HCM patient-derived hPSC-CMs on flat and patterned MEAs; type: cell-based, human; conditions: 1 μM, 30 minutes, patterned HCM cells
# From the text: Hypertrophic cardiomyopathy (HCM) manifests as a thickening of the myocardial tissue, typically due to mutations in genes encoding specific sarcomeric proteins.
# FIG. 14A depicts an immunostained image of hPSC-CMs obtained from HCM patients and maintained on flat Nafion substrates. FIG. 14B depicts an immunostained image of hPSC-CMs obtained from an unaffected family member related to the examined HCM patient and maintained on flat Nafion substrates. FIG. 14C depicts an immunostained image of hPSC-CMs obtained from HCM patients and maintained on patterned Nafion substrates. FIG. 14D depicts an immunostained image of hPSC-CMs obtained from an unaffected family member related to the examined HCM patient and maintained on patterned Nafion substrates. FIG. 14E depicts quantification of sarcomere length measured from HCM and familial control hPSC-CMs maintained on flat and patterned Nafion substrates. FIG. 14F depicts quantification of z-band width measured from HCM and familial control hPSC-CMs maintained on flat and patterned Nafion substrates. FIG. 14G depicts representative QRS complex traces collected from HCM hPSC-CMs on flat and patterned MEAs. FIG. 14H depicts fold-change in average spike slope (Q-R angle) measured across 30 beats from normal and HCM hPSC-CMs on flat and patterned MEAs. […]
# [4] = unpatterned and patterned cells, increasing doses
compound,measurement,setting,value
CC(=O)N[C@@H](CS)C(=O)O [N-acetyl-L-cysteine],"pixel intensity, oxidative stress detection reagent",patterned hPSC-CMs,"significantly lower than all other groups examined, with the exception of the patterned samples"
same,"pixel intensity, superoxide detection reagent",patterned hPSC-CMs,significantly lower than all other groups
N=C(N)NCCC[C@H](N)C(=O)O [L-arginine],"pixel intensity, NO detection reagent",patterned hPSC-CMs,significantly higher than all other groups
CC1(C)[C@@H](OC(=O)CCC(=O)O)CC[C@]2(C)[C@H]3C(=O)C=C4[C@@H]5C[C@@](C)(C(=O)O)CC[C@]5(C)CC[C@@]4(C)[C@]3(C)CC[C@@H]12 [carbenoxolone],IC50,hPSC-CM monolayers [1]; flat hPSC-CM monolayers,398 nM
same,IC50,hPSC-CM monolayers [1]; nanotopographically-patterned hPSC-CM monolayers,14.7 nM
same,effect on conduction speeds,"hPSC-CM monolayers [1]; in vitro, nanoMEA platform",significantly reduced conduction speeds
c-PTIO,"pixel intensity, NO detection reagent",patterned hPSC-CMs,significantly lower than all other groups
COc1cc(N)c(Cl)cc1C(=O)NC1CCN(CCCOc2ccc(F)cc2)CC1OC (stereo not shown) [cisapride],"field potential duration prolongation, 3D versus 2D cultures",3D cardiac tissues,significantly stronger reactions
same,effect on FPDc / field potential,hPSC-CM monolayers [2],significant prolongation of the field potential
same,FPDc prolongation,"hPSC-CM monolayers [2]; 1 μM, cells on both substrates",~50%
Cn1c2cccc(=O)c-2nc2ccccc21 [Pyocyanin],"pixel intensity, oxidative stress detection reagent",patterned hPSC-CMs,significantly higher values then all other groups
same,"pixel intensity, superoxide detection reagent",patterned hPSC-CMs,significantly higher than all other groups
CC(C)COCC(CN(Cc1ccccc1)c1ccccc1)N1CCCC1 (stereo not shown) [bepridil],change in FPDc,hPSC-CM monolayers [2],not significantly different from baseline
same,effect on FPDc,hPSC-CM monolayers [2],significant prolongation of FPDc
same,change in FPDc from baseline,"hPSC-CM monolayers [2]; 1 μM, flat cells",7%
same,increase of FPDc from baseline,"hPSC-CM monolayers [2]; 1 μM, patterned cells",roughly 20%
COc1ccc(CCN(C)CCCC(C#N)(c2ccc(OC)c(OC)c2)C(C)C)cc1OC (stereo not shown) [verapamil],arrhythmogenic effect,hPSC-CM monolayers [2]; [4],no notable arrhythmogenic effect
same,effect on FPDc / field potential,hPSC-CM monolayers [2]; [4],significant shortening of FPDc
same,effect on depolarizing spike slope,[3],improved patterned HCM spike slopes
